The record followed here is patent US20050245527A1, “Nitrogen containing heterocyclic compounds and medicines containing the same” (priority 2002, published 2005).

For assay [1], the system named is left saphenous nerve of rats (ectopic firing). Description: Inhibition of ectopic firing. The format is in vivo. To be noted: Rattus norvegicus, iv; rats with cut left saphenous nerve, urethane anesthesia, compound via catheter in right cervical vein, number of firings in 10 seconds; read-out: Inhibition of ectopic firing (ID50). On the procedure:
<Inhibition of Ectopic Firing>
(1) The inhibitory effect on ectopic firing was evaluated by the following method, with reference to Burchiel, K J., Exp. Neurol., 102, 249-253 (1988).
(2) The left saphenous nerve of rats, in which ectopic firing was observed, was cut near the knee joint, and approximately 3 mm was cut off to avoid reattachment of the cut nerve. After more than a week, the left saphenous nerve was exposed under urethane (1 g/kg body weight) anesthesia, and the proximal part up to approximately 1 cm from the cut site was detached from the surrounding tissue. A catheter was inserted in the right cervical vein beforehand for administration of the compound.
(3) The detached nerve was placed on a platinum hook electrode and wetted with liquid paraffin to avoid drying of the nerve. The electrode was connected to a microelectrode amplifier, and the change in potential was recorded from an oscilloscope through an A/D converter onto a computer. The recorded nerve firing was evaluated based on the number of firings in 10 seconds, using analyzing software (AcqKnowledge).

Assay [2] relates to sodium channels. Format: cell-based. To be noted: read-out: IC50 (μM), sodium channel-inhibiting activity; rat fetal cultured hippocampal neurons, SBFI fluorescence in the presence of 4-aminopyridine, 5 minutes after addition, 1 μM tetrodotoxin = 100%.

For the compound `Cc1ccccc1CCC1(O)CCN(Cc2ncc[nH]c2=O)CC1` [Example 222, 3-[4-Hydroxy-4-[2-(2-methylphenyl)ethyl]piperidino]methyl-1H-pyrazin-2-one], the ED50 in assay [1] was in the range of 0.5 to 1 mg/kg. The 50% inhibitory concentration (IC50) (usually the point on the concentration scale where inhibition reaches its midpoint) in assay [2] amounted to 2.5 µM.

As for `O=c1[nH]ccnc1CN1CCC(COCc2ccccc2F)CC1` [Example 160, 3-[4-(2-Fluorobenzyloxymethyl)piperidino]methyl-1H-pyrazin-2-one], the ED50 in assay [1] fell in the range of 0.5 to 1 mg/kg. In addition, the IC50 in assay [2] worked out at 3.5 µM.

In the case of `O=c1[nH]ccnc1CN1CCC(COc2ccccc2Cl)CC1` [Example 158, 3-[4-(2-Chlorophenoxymethyl)piperidino]methyl-1H-pyrazin-2-one], the ED50 in assay [1] is under 0.5 mg/kg. In assay [2], the IC50 was 3.7 µM.

For `O=c1[nH]ccnc1CN1CCC(/C=C/c2sccc2Cl)CC1` [Example 168, (E)-3-[4-[2-(3-Chloro-2-thienyl)vinyl]piperidino]methyl-1H-pyrazin-2-one], in assay [1], the ED50 lay in the range of 0.5 to 1 mg/kg. Moreover, the IC50 in assay [2] was 2.1 µM.

As for `COc1ccccc1CC(=O)C1CCN(Cc2ncc[nH]c2=O)CC1` [Example 193, 3-[4-[2-(2-Methoxyphenyl)acetyl]piperidino]methyl-1H-pyrazin-2-one], the ED50 in assay [1] was under 0.5 mg/kg. Besides, the IC50 in assay [2] was found to be 2.9 µM.

In the case of `Cc1ccccc1/C=C/C1CCN(Cc2ncc[nH]c2=O)CC1` [Example 171, (E)-3-[4-[2-(2-Methylphenyl)vinyl]piperidino]methyl-1H-pyrazin-2-one], in assay [1], the ED50 is under 0.5 mg/kg. Moreover, the IC50 in assay [2] amounted to 0.6 µM.

Take `O=C(Cc1c(F)cccc1F)C1CCN(Cc2ncc[nH]c2=O)CC1` [Example 195, 3-[4-[2-(2,6-Difluorophenyl)acetyl]piperidino]methyl-1H-pyrazin-2-one]: the ED50 in assay [1] lay within 0.5 to 1 mg/kg. The IC50 in assay [2] is 2 µM.

As to `Cc1ccccc1OCC1(CCc2ccccc2F)CCN(Cc2ncc[nH]c2=O)CC1` [Example 225, 3-[4-[2-(2-Fluorophenyl)ethyl]-4-(2-methylphenoxymethyl)piperidino]methyl-1H-pyrazin-2-one], the ED50 in assay [1] is 0.5 to 1 mg/kg. The IC50 in assay [2] is 1.6 µM.

Regarding `O=C(CC1CCN(Cc2ncc[nH]c2=O)CC1)c1sccc1Cl` [Example 169, 3-[4-[2-(3-Chloro-2-thienyl)-2-oxoethyl]piperidino]methyl-1H-pyrazin-2-one], the ED50 in assay [1] fell in the range of 0.5 to 1 mg/kg. Besides, in assay [2], the IC50 is 3.5 µM.

As for `O=c1[nH]c2ccccc2nc1CN1CCC(COc2ccccc2F)CC1` [Example 204, 3-[4-(2-Fluorophenoxymethyl)piperidino]methyl-1H-quinoxalin-2-one], the ED50 in assay [1] was in the range of 0.5 to 1 mg/kg. Also, in assay [2], the IC50 was 8.1 µM.

Regarding `O=c1[nH]ccnc1CN1CCC(CCc2ccccc2F)CC1` [Example 177, 3-[4-[2-(2-Fluorophenyl)ethyl]piperidino]methyl-1H-pyrazin-2-one], the ED50 in assay [1] was under 0.5 mg/kg. Besides, in assay [2], the IC50 came out at 4.5 µM.

As for `O=c1[nH]ccnc1CN1CCC(COc2ccccc2F)CC1` [Example 142, 3-[4-(2-Fluorophenoxymethyl)piperidino]methyl-1H-pyrazin-2-one], the ED50 in assay [1] was under 0.5 mg/kg. Besides, in assay [2], the IC50 came to 4.2 µM.

Turning to `COc1ccccc1OCC1CCN(Cc2ncc[nH]c2=O)CC1` [Example 143, 3-[4-(2-Methoxyphenoxymethyl)piperidino]methyl-1H-pyrazin-2-one], the ED50 in assay [1] is under 0.5 mg/kg. For the same compound, in assay [2], the IC50 came to 3.1 µM.

With `O=c1[nH]ccnc1CN1CCC(COc2ccccc2C(F)(F)F)CC1` [Example 164, 3-[4-[2-(Trifluoromethyl)phenoxymethyl]piperidino]methyl-1H-pyrazin-2-one], in assay [1], the ED50 is under 0.5 mg/kg. For the same compound, in assay [2], the IC50 was 3.3 µM.

Regarding `O=c1[nH]ccnc1CN1CCC(CCc2ccccc2F)C1` (stereo not shown) [Example 134, 3-[3-[2-(2-Fluorophenyl)ethyl]pyrrolidino]methyl-1H-pyrazin-2-one], the ED50 in assay [1] is 0.5 to 1 mg/kg. Moreover, the IC50 in assay [2] was found to be 3.1 µM.

Take `O=c1[nH]ccnc1CN1CCC(COc2c(F)cccc2F)CC1` [Example 201, 3-[4-(2,6-Difluorophenoxymethyl)piperidino]methyl-1H-pyrazin-2-one]: in assay [1], the ED50 lay within 0.5 to 1 mg/kg. Besides, the IC50 in assay [2] amounted to 6.7 µM.

For the compound `O=c1[nH]cccc1CN1CCC(CO)(CCc2ccccc2)CC1` [Example 256, 3-[4-Hydroxymethyl-4-(2-phenylethyl)piperidino]methyl-1H-pyridin-2-one], the ED50 in assay [1] lay in the range of 0.5 to 1 mg/kg. The half-inhibitory concentration (IC50) in assay [2] was 5.8 µM.

Consider `O=C(Cc1ccccc1F)C1CCCN(Cc2ncc[nH]c2=O)C1` (stereo not shown) [Example 208, 3-[3-[2-(2-Fluorophenyl)acetyl]piperidino]methyl-1H-pyrazin-2-one], for which the ED50 in assay [1] lay in the range of 0.5 to 1 mg/kg. In addition, the IC50 in assay [2] amounted to 5.5 µM.

As to `Cc1ccc(-c2ccccc2)n1CC1(O)CCN(Cc2ccc[nH]c2=O)CC1` [Example 251, 3-[4-Hydroxy-4-(2-methyl-5-phenylpyrrol-1-yl)methyl-piperidino]methyl-1H-pyridin-2-one], in assay [1], the ED50 was in the range of 0.5 to 1 mg/kg. For the same compound, the IC50 in assay [2] was 8.4 µM.

Consider `O=c1[nH]cccc1CN1CCC(O)(COc2ccccc2F)CC1` [Example 253, 3-[4-Hydroxy-4-(2-fluorophenoxymethyl)piperidino]methyl-1H-pyridin-2-one], for which the ED50 in assay [1] is under 0.5 mg/kg. Besides, in assay [2], the IC50 came out at 9.2 µM.

With `CC(c1ncc[nH]c1=O)N1CCC(C(=O)Cc2ccccc2F)CC1` (stereo not shown) [Example 350, 3-[1-[4-[2-(2-Fluorophenyl)acetyl]piperidino]ethyl]-1H-pyrazin-2-one], in assay [1], the ED50 was under 0.5 mg/kg. The IC50 in assay [2] worked out at 6 µM.

Take `O=c1[nH]ccnc1CN1CCC(F)(COc2ccccc2F)CC1` [Example 223, 3-[4-Fluoro-4-(2-fluorophenoxymethyl)piperidino]methyl-1H-pyrazin-2-one]: the ED50 in assay [1] fell in the range of 0.5 to 1 mg/kg. For the same compound, the IC50 in assay [2] is 6 µM.

For `Cc1ccccc1OCC1CCN(Cc2ncc[nH]c2=O)CC1` [Example 147, 3-[4-(2-Methylphenoxymethyl)piperidino]methyl-1H-pyrazin-2-one], the ED50 in assay [1] is under 0.5 mg/kg. The IC50 in assay [2] was found to be 2.5 µM.

Take `Cc1cccc(CC(=O)C2CCN(Cc3ncc[nH]c3=O)CC2)c1` [Example 192, 3-[4-[2-(3-Methylphenyl)acetyl]piperidino]methyl-1H-pyrazin-2-one]: in assay [1], the ED50 fell in the range of 0.5 to 1 mg/kg. Besides, the IC50 in assay [2] worked out at 3.8 µM.

Consider `O=c1[nH]cccc1CN1CCC(O)(C#Cc2ccccc2F)CC1` [Example 258, 3-[4-Hydroxy-4-[(2-fluorophenyl)ethynyl]piperidino]methyl-1H-pyridin-2-one], for which, in assay [1], the ED50 was under 0.5 mg/kg. In addition, the IC50 in assay [2] worked out at 4.2 µM.

For the compound `O=c1[nH]ccnc1CN1CCC(CCc2cccc3ccoc23)CC1` [Example 146, 3-[4-[2-(Benzofuran-7-yl)ethyl]piperidino]methyl-1H-pyrazin-2-one], the ED50 in assay [1] was under 0.5 mg/kg. The IC50 in assay [2] was 2 µM.

For the compound `COc1ccccc1CCC1CCN(Cc2ncc[nH]c2=O)C1.O=C(O)C(=O)O` (stereo not shown) [Example 135, 3-[3-[2-(2-Methoxyphenyl)ethyl]pyrrolidino]methyl-1H-pyrazin-2-one oxalate], the ED50 in assay [1] is under 0.5 mg/kg. In addition, in assay [2], the IC50 was determined as 4 µM.

On to `O=c1[nH]cccc1CN1CCC(F)(COc2ccccc2F)CC1` [Example 124, 3-[4-Fluoro-4-(2-fluorophenoxymethyl)piperidino]methyl-1H-pyridin-2-one], for which the ED50 in assay [1] was under 0.5 mg/kg. Moreover, in assay [2], the IC50 stood at 7.8 µM.

`CSc1ccccc1CC(=O)C1CCN(Cc2ncc[nH]c2=O)CC1` [Example 343, 3-[4-[2-[2-(Methylthio)phenyl]acetyl]piperidino]methyl-1H-pyrazin-2-one]: in assay [1], the ED50 is under 0.5 mg/kg. In addition, in assay [2], the IC50 turned out to be 3.5 µM.

Turning to `Cc1ccccc1COC1CCN(Cc2ncc[nH]c2=O)CC1` [Example 152, 3-[4-(2-Methylbenzyloxy)piperidino]methyl-1H-pyrazin-2-one], in assay [1], the ED50 was in the range of 0.5 to 1 mg/kg. Further, the IC50 in assay [2] came out at 5.3 µM.

Take `O=C(Cc1ccccc1C(F)(F)F)C1CCN(Cc2ncc[nH]c2=O)CC1` [Example 344, 3-[4-[2-[2-(Trifluoromethyl)phenyl]acetyl]piperidino]methyl-1H-pyrazin-2-one]: the ED50 in assay [1] was under 0.5 mg/kg. For the same compound, the IC50 in assay [2] came out at 4.4 µM.

Take `O=c1[nH]ccnc1CN1CCC(CCc2ccccc2F)(COc2ccccc2F)CC1` [Example 224, 3-[4-(2-Fluorophenoxymethyl)-4-[2-(2-fluorophenyl)ethyl]piperidino]methyl-1H-pyrazin-2-one]: the ED50 in assay [1] was in the range of 0.5 to 1 mg/kg. In assay [2], the IC50 is 1.6 µM.

In the case of `O=C(O)C(=O)O.O=c1[nH]ccnc1CN1CCC(COc2ccccc2F)C1` (stereo not shown) [Example 132, 3-[3-(2-Fluorophenoxymethyl)pyrrolidino]methyl-1H-pyrazin-2-one oxalate], the ED50 in assay [1] was 0.5 to 1 mg/kg. In assay [2], the IC50 was found to be 6.2 µM.

As for `O=C(Cc1ccccc1F)C1CCN(Cc2ncc[nH]c2=O)CC1` [Example 179, 3-[4-[2-(2-Fluorophenyl)acetyl]piperidino]methyl-1H-pyrazin-2-one], the ED50 in assay [1] was under 0.5 mg/kg. In addition, in assay [2], the IC50 worked out at 4.6 µM.

For the compound `Cc1ccccc1OCC1CCCN(Cc2ncc[nH]c2=O)C1` (stereo not shown) [Example 154, 3-[3-(2-Methylphenoxymethyl)piperidino]methyl-1H-pyrazin-2-one], in assay [1], the ED50 fell in the range of 0.5 to 1 mg/kg. The IC50 in assay [2] turned out to be 3.1 µM.
